Test results published in patent US6355799B1, “Substituted benzene compounds, process for their preparation, and herbicidal and defoliant compositions containing them” (ISK Americas Incorporated, priority 1997, dated 2002).

Key:
Type in all cases: in vivo
[1] = test system: redroot pigweed (Amaranthus retroflexus, AMARE); experiment: Pre-emerge test, greenhouse herbicide activity screening; conditions: phytotoxicity rating 0-100, 14 days after application
Outline: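 Compounds in acetone were track-sprayed at 187 l/ha, 15–1000 g ai/ha, onto sandy loam pots. Pre-emerge seeds were sown one day before spraying, with surface watering afterwards. Post-emerge plants were at the 2–3 leaf stage and sprayed with 0.25% v/v non-ionic surfactant. Injury was rated 0–100 at 14 days.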

[2] = test system: barnyardgrass (Echinochloa crus-galli, ECHCG); experiment: as above; conditions: phytotoxicity rating 0-100, 14 days after application
Outline: (§1)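 Compounds in acetone were track-sprayed at 15-1000 g ai/ha (187 l/ha) on sandy loam pots: pre-emerge one day after seeding, post-emerge at 2-3 leaf stage with 0.25% v/v non-ionic surfactant. Phytotoxicity was rated 14 days later on a 0 (no damage) to 100 (complete death) scale.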

[3] = test system: green foxtail (Setaria viridis, SETVI); experiment: as above; conditions: phytotoxicity rating 0-100, 14 days after application
Outline: as §1

[4] = test system: ivyleaf morningglory (Ipomoea hederacea, IPOHE); experiment: as above; conditions: phytotoxicity rating 0-100, 14 days after application
Outline: as §1

[5] = test system: johnsongrass (Sorghum halepense, SORHA); experiment: as above; conditions: phytotoxicity rating 0-100, 14 days after application
Outline: as §1

[6] = test system: lambsquarters (Chenopodium album, CHEAL); experiment: as above; conditions: phytotoxicity rating 0-100, 14 days after application
Outline: as §1

[7] = test system: large crabgrass (Digitaria sanguinalis, DIGSA); experiment: as above; conditions: phytotoxicity rating 0-100, 14 days after application
Outline: as §1

[8] = test system: sicklepod (Cassia obtusifolia, CASOB); experiment: as above; conditions: phytotoxicity rating 0-100, 14 days after application
Outline: as §1

[9] = test system: velvetleaf (Abutilon theophrasti, ABUTH); experiment: as above; conditions: phytotoxicity rating 0-100, 14 days after application
Outline: as §1

[10] = test system: field corn (Zea mays L., var. Dekalb 535, CORN); experiment: Pre-emerge test, crop safety; conditions: crop damage rating 0-100, 14 days after application
Outline: (§2)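 Herbicidal damage is scored 0 (none) to 100 (complete plant death) two weeks after a simulated field spray. Rates span 15–1000 g ai/ha, delivered in acetone at 187 l/ha. For post-emergence treatments, plants have 2–3 leaves and the spray carries 0.25% v/v non-ionic surfactant.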

[11] = test system: upland rice (Oryza sp., var. Tebonnet, RICE); experiment: Pre-emerge test, crop safety; conditions: crop damage rating 0-100, 14 days after application
Outline: as §2

[12] = test system: barnyardgrass (Echinochloa crus-galli, ECHCG); experiment: Post-emerge test, greenhouse herbicide activity screening; conditions: post-emerge, 14 days after application, rating scale 0-100
Outline: (§3)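 Visual ratings on a 0-100 scale (0 no damage, 100 all plants dead) were taken at 14 days after treatment. Rates of 15-1000 g ai/ha in acetone, 187 l/ha, were sprayed onto soil one day after planting (pre-emerge) or onto 2-3 leaf plants with 0.25% v/v surfactant (post-emerge).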

[13] = test system: green foxtail (Setaria viridis, SETVI); experiment: as above; conditions: post-emerge, 14 days after application, rating scale 0-100
Outline: as §3

[14] = test system: ivyleaf morningglory (Ipomoea hederacea, IPOHE); experiment: as above; conditions: post-emerge, 14 days after application, rating scale 0-100
Outline: as §3

[15] = test system: johnsongrass (Sorghum halepense, SORHA); experiment: as above; conditions: post-emerge, 14 days after application, rating scale 0-100
Outline: as §3

[16] = test system: lambsquarters (Chenopodium album, CHEAL); experiment: as above; conditions: post-emerge, 14 days after application, rating scale 0-100
Outline: as §3

[17] = test system: large crabgrass (Digitaria sanguinalis, DIGSA); experiment: as above; conditions: post-emerge, 14 days after application, rating scale 0-100
Outline: as §3

[18] = test system: redroot pigweed (Amaranthus retroflexus, AMARE); experiment: as above; conditions: post-emerge, 14 days after application
Outline: as §3

[19] = test system: sicklepod (Cassia obtusifolia, CASOB); experiment: as above; conditions: post-emerge, 14 days after application, rating scale 0-100
Outline: as §3

[20] = test system: velvetleaf (Abutilon theophrasti, ABUTH); experiment: as above; conditions: post-emerge, 14 days after application, rating scale 0-100
Outline: as §3

[21] = test system: field corn (Zea mays L., var. Dekalb 535, CORN); experiment: Post-emerge test, crop safety; conditions: post-emerge, 14 days after application, rating scale 0-100
Outline: as §1

[22] = test system: upland rice (Oryza sp., var. Tebonnet, RICE); experiment: Post-emerge test, crop safety; conditions: post-emerge, 14 days after application, rating scale 0-100
Outline: as §1

[23] = 63 g ai/ha, rating scale 0-100 (0 no damage, 100 complete death)
[24] = 250 g ai/ha, rating scale 0-100

Cn1c(C(F)(F)F)cc(=O)n(-c2ccc(OC(F)(F)F)cc2NC(=O)c2ccc3ccccc3c2)c1=O [2-203]
Pre-emerge Herbicidal Activity AMARE ([1]; 63 g ai/ha): 70
Pre-emerge Herbicidal Activity AMARE ([1]; 250 g ai/ha): 100
Pre-emerge Herbicidal Activity ECHCG ([2]; 63 g ai/ha): 0
Pre-emerge Herbicidal Activity ECHCG ([2]; 250 g ai/ha): 80
Pre-emerge Herbicidal Activity SETVI ([3]; 63 g ai/ha): 20
Pre-emerge Herbicidal Activity SETVI ([3]; 250 g ai/ha): 70
Pre-emerge Herbicidal Activity IPOHE ([4]; 63 g ai/ha): 10
Pre-emerge Herbicidal Activity IPOHE ([4]; 250 g ai/ha): 70
Pre-emerge Herbicidal Activity SORHA ([5]; 63 g ai/ha): 0
Pre-emerge Herbicidal Activity SORHA ([5]; 250 g ai/ha): 40
Pre-emerge Herbicidal Activity CHEAL ([6]; 63 g ai/ha): 100
Pre-emerge Herbicidal Activity CHEAL ([6]; 250 g ai/ha): 100
Pre-emerge Herbicidal Activity DIGSA ([7]; 63 g ai/ha): 60
Pre-emerge Herbicidal Activity DIGSA ([7]; 250 g ai/ha): 90
Pre-emerge Herbicidal Activity CASOB ([8]; 63 g ai/ha): 30
Pre-emerge Herbicidal Activity CASOB ([8]; 250 g ai/ha): 90
Pre-emerge Herbicidal Activity ABUTH ([9]; 63 g ai/ha): 75
Pre-emerge Herbicidal Activity ABUTH ([9]; 250 g ai/ha): 100
Pre-emerge Herbicidal Activity CORN ([10]; 63 g ai/ha): 0
Pre-emerge Herbicidal Activity CORN ([10]; 250 g ai/ha): 0
Pre-emerge Herbicidal Activity RICE ([11]; 63 g ai/ha): 10
Pre-emerge Herbicidal Activity RICE ([11]; 250 g ai/ha): 20
phytotoxicity rating ECHCG ([12]; 63 g ai/ha): 10
phytotoxicity rating ECHCG ([12]; 250 g ai/ha): 30
phytotoxicity rating SETVI ([13]; 63 g ai/ha): 20
phytotoxicity rating SETVI ([13]; 250 g ai/ha): 30
phytotoxicity rating IPOHE ([14]; 63 g ai/ha): 60
phytotoxicity rating IPOHE ([14]; 250 g ai/ha): 95
phytotoxicity rating SORHA ([15]; 63 g ai/ha): 10
phytotoxicity rating SORHA ([15]; 250 g ai/ha): 20
phytotoxicity rating CHEAL ([16]; 63 g ai/ha): 100
phytotoxicity rating CHEAL ([16]; 250 g ai/ha): 100
phytotoxicity rating DIGSA ([17]; 63 g ai/ha): 10
phytotoxicity rating DIGSA ([17]; 250 g ai/ha): 30
phytotoxicity rating AMARE [18, 23]: 100
phytotoxicity rating AMARE [18, 24]: 100
phytotoxicity rating CASOB ([19]; 63 g ai/ha): 100
phytotoxicity rating CASOB ([19]; 250 g ai/ha): 100
phytotoxicity rating ABUTH ([20]; 63 g ai/ha): 100
phytotoxicity rating ABUTH ([20]; 250 g ai/ha): 100
phytotoxicity rating CORN (crop damage) ([21]; 63 g ai/ha): 10
phytotoxicity rating CORN (crop damage) ([21]; 250 g ai/ha): 10
phytotoxicity rating RICE (crop damage) ([22]; 63 g ai/ha): 25
phytotoxicity rating RICE (crop damage) ([22]; 250 g ai/ha): 30

COc1c(Cl)cc(F)c(-n2c(=O)cc(C(F)(F)F)n(C)c2=O)c1NC(=O)C1CC1 [2-206]
Pre-emerge Herbicidal Activity AMARE ([1]; 63 g ai/ha): 0
Pre-emerge Herbicidal Activity AMARE ([1]; 250 g ai/ha): 80
Pre-emerge Herbicidal Activity ECHCG ([2]; 63 g ai/ha): 0
Pre-emerge Herbicidal Activity ECHCG ([2]; 250 g ai/ha): 90
Pre-emerge Herbicidal Activity SETVI ([3]; 63 g ai/ha): 0
Pre-emerge Herbicidal Activity SETVI ([3]; 250 g ai/ha): 70
Pre-emerge Herbicidal Activity IPOHE ([4]; 63 g ai/ha): 50
Pre-emerge Herbicidal Activity IPOHE ([4]; 250 g ai/ha): 90
Pre-emerge Herbicidal Activity SORHA ([5]; 63 g ai/ha): 0
Pre-emerge Herbicidal Activity SORHA ([5]; 250 g ai/ha): 40
Pre-emerge Herbicidal Activity CHEAL ([6]; 63 g ai/ha): 50
Pre-emerge Herbicidal Activity CHEAL ([6]; 250 g ai/ha): 100
Pre-emerge Herbicidal Activity DIGSA ([7]; 63 g ai/ha): 0
Pre-emerge Herbicidal Activity DIGSA ([7]; 250 g ai/ha): 80
Pre-emerge Herbicidal Activity CASOB ([8]; 63 g ai/ha): 20
Pre-emerge Herbicidal Activity CASOB ([8]; 250 g ai/ha): 60
Pre-emerge Herbicidal Activity ABUTH ([9]; 63 g ai/ha): 70
Pre-emerge Herbicidal Activity ABUTH ([9]; 250 g ai/ha): 100
Pre-emerge Herbicidal Activity CORN ([10]; 63 g ai/ha): 50
Pre-emerge Herbicidal Activity CORN ([10]; 250 g ai/ha): 100
Pre-emerge Herbicidal Activity RICE ([11]; 63 g ai/ha): 60
Pre-emerge Herbicidal Activity RICE ([11]; 250 g ai/ha): 80
phytotoxicity rating ECHCG ([12]; 63 g ai/ha): 0
phytotoxicity rating ECHCG ([12]; 250 g ai/ha): 30
phytotoxicity rating SETVI ([13]; 63 g ai/ha): 0
phytotoxicity rating SETVI ([13]; 250 g ai/ha): 0
phytotoxicity rating IPOHE ([14]; 63 g ai/ha): 70
phytotoxicity rating IPOHE ([14]; 250 g ai/ha): 90
phytotoxicity rating SORHA ([15]; 63 g ai/ha): 0
phytotoxicity rating SORHA ([15]; 250 g ai/ha): 0
phytotoxicity rating CHEAL ([16]; 63 g ai/ha): 50
phytotoxicity rating CHEAL ([16]; 250 g ai/ha): 70
phytotoxicity rating DIGSA ([17]; 63 g ai/ha): 30
phytotoxicity rating DIGSA ([17]; 250 g ai/ha): 20
phytotoxicity rating AMARE [18, 23]: 20
phytotoxicity rating AMARE [18, 24]: 50
phytotoxicity rating CASOB ([19]; 63 g ai/ha): 50
phytotoxicity rating CASOB ([19]; 250 g ai/ha): 80
phytotoxicity rating ABUTH ([20]; 63 g ai/ha): 50
phytotoxicity rating ABUTH ([20]; 250 g ai/ha): 90
phytotoxicity rating CORN (crop damage) ([21]; 63 g ai/ha): 0
phytotoxicity rating CORN (crop damage) ([21]; 250 g ai/ha): 0
phytotoxicity rating RICE (crop damage) ([22]; 63 g ai/ha): 0
phytotoxicity rating RICE (crop damage) ([22]; 250 g ai/ha): 70
